Assay results from patent US6818646B2 (priority 2000, dated 2004).
Where a name gives a salt, the structure may show the parent alone.

target: T1, PDEV (Homo sapiens, UniProt O76074); test: PDE assay: inhibition of PDEV isolated from human tissue; format: biochemical; settings: 10 μM test compound
T1 construct: PDEV was isolated from rabbit and human tissues according to the protocol described by Boolell et al; from tissue; host or cells: human tissue, homogenate supernatant fractionated on Mono Q
Procedure: Briefly, rabbit or human tissues were homogenized in an ice-cold buffer solution containing 20 mM HEPES (pH 7.2), 0.25M sucrose, 1 mM EDTA, and 1 mM phenylmethylsulphonyl fluoride (PMSF). The homogenates were centrifuged at 100,000 g for 60 minutes at 4° C. The supernatant was filtered through […] filter and loaded on a Pharmacia Mono Q anion exchange column (1 ml bed volume) that was equilibrated with 20 mM HEPES, 1 mM EDTA and 0.5 mM PMSF. After washing out unbound proteins, the enzymes were eluted with a linear gradient of 100-600 mM NaCl in the same buffer (35 to 50 ml total, depending on the tissue. Enzymes from the skeletal muscle, corpus cavernosum, retina, heart and platelet were eluted with 35, 40, 45, 50, and 50 ml respectively.) The column was run at a flow rate of 1 ml/min and 1 ml fractions were collected. The fractions comprising various PDE activities were pooled separately and used in later studies.
The assays were adapted to a 96-well format. The enzyme was assayed in 5 mM MgCl2, 15 mM Tris HCl (pH 7.4), 0.5 mg/ml bovine serum albumin, 1 μM cGMP or cAMP, 0.1 μCi [^3H]-cGMP or [^3H]-cAMP, and 2-10 μl of column elution. The total volume of the assay was 100 μl. The reaction mixture was incubated at 30° C. for 30 minutes. The reaction was stopped by boiling for 1 minute and then cooled down on ice. The resulting [^3H]5′-mononucleotides were further converted to uncharged [^3H]-nucleosides by adding 25 μl 1 mg/ml snake venom (Ophiophagus hannah) and incubating at 30° C. for 10 minute. The reaction was stopped by the addition of 1 ml Bio-Rad AG1-X2 resin slurry (1:3). All the charged nucleotides were bound by the resin and only uncharged [^3H]-nucleosides remained in the supernatant after centrifuging. An aliquot of 200 μl was taken and counted by liquid scintillation. PDE activity was expressed as pmol cyclic nucleotide hydrolyzed/min/ml of enzyme preparation.
Inhibitor studies were carried out in assay buffer with a final concentration of 10% DMSO.
The % inhibition of the maximum substrate conversion (by the enzyme in the absence of inhibitor) was calculated for each test compound concentration. Using GraphPad Prism's nonlinear regression analysis (sigmoidal dose response), the % inhibition vs log of the test compound concentration was plotted to determine the IC50. Under conditions where substrate concentration <<Km of the enzyme (Km=substrate concentration at which half of the maximal velocity of the enzyme is achieved), Ki is equivalent to the IC50 value.
Unless otherwise noted, PDEV inhibitory activities were measured using human tissue. The abbreviation “stereo” refers to the stereogenic configuration, the abbreviation “Rac” shall denote a racemic mixture.

| SMILES | inhibition at 10 µM [%] |
| --- | --- |
| O=c1c2c([nH]c3ccccc13)C(c1ccc3c(c1)CCO3)NC2 (racemic) [Compound 17, 1,2,3,4-Tetrahydro-3-(2,3-dihydrobenzofuran-5-yl)-9H-pyrrolo-[3,4-b]quinolin-9-one, hydrochloride salt] | 65 |

same assay, conditions: PDEV inhibitory activity

| SMILES | IC50 [nM] |
| --- | --- |
| Oc1c2c(nc3ccccc13)C(c1ccc3c(c1)OCO3)N(c1ncc(-c3cccnc3)cn1)C2 (racemic) [Compound 100] | 0.52 |
| COC(=O)c1ccc(-c2ccc(C(=O)N3Cc4c([nH]c5ccccc5c4=O)C3c3ccc4c(c3)OCO4)o2)cc1 (centres unmarked) [Compound 24, 1,2,3,4-Tetrahydro-3-(3,4-methylenedioxyphenyl)-2-[5-(4-methoxycarbonylphenyl)-furoyl]-9H-pyrrolo[3.4-b]-quinolin-9-one] | 1.21 |
| O=C(O)c1ccc(/C=C/C(=O)N2Cc3c([nH]c4ccccc4c3=O)C2c2ccc3c(c2)OCO3)cc1 (racemic) [Compound 8, (E)-4-[3-Oxo-3-[1,2,3,4-tetrahydro-3-(3,4-methylenedioxyphenyl)-9H-pyrrolo-[3,4-b]quinolin-9-one-2-yl]-1-propenyl]benzoic acid] | 0.828 |
| O=C(c1ccc(-c2ccc(O)cc2)o1)N1Cc2c(nc3ccccc3c2O)C1c1ccc2c(c1)OCO2 (racemic) [Compound 22, 1,2,3,4-Tetrahydro-3-(3,4-methylenedioxyphenyl)-2-[5-(4-hydroxyphenyl)furoyl]-9H-pyrrolo[3,4-b]-quinolin-9-one] | 0.86 |
| O=c1c2c([nH]c3ccccc13)C(c1ccc3c(c1)OCO3)N(Cc1ccccc1)C2 (racemic) [Compound 54, 1,2,3,4-Tetrahydro-2-benzyl-3-(3,4-methylenedioxyphenyl)-9H-pyrrolo-[3,4-b]quinolin-9-one] | 234 |
| Oc1c2c(nc3ccccc13)C(c1ccc3c(c1)CCO3)N(c1ncc(Br)cn1)C2 (racemic) [Compound 74] | 1.9 |
| O=c1c2c([nH]c3ccccc13)C(c1ccc3c(c1)OCO3)N(c1ncc(-c3ccncc3)cn1)C2 (racemic) [Compound 57, 1,2,3,4-Tetrahydro-2-[5-(4-pyridinyl)-pyrimidin-2-yl]-3-(3,4-methylenedioxyphenyl)-9H-pyrrolo-[3,4-b]quinolin-9-one] | 0.84 |
| O=C(c1cccnc1O)N1Cc2c([nH]c3ccccc3c2=O)C1c1ccc2c(c1)OCO2 (racemic) [Compound 25, 1,2,3,4-Tetrahydro-3-(3,4-methylenedioxyphenyl)-2-[2-hydroxynicotinoyl)-9H-pyrrolo[3,4-b]-quinolin-9-one] | 1.57 |
| O=C(c1ccc(-c2ccsc2)o1)N1Cc2c(nc3ccccc3c2O)C1c1ccc2c(c1)OCO2 (racemic) [Compound 112] | 0.699 |
| Nc1ccc(-c2ccc(C(=O)N3Cc4c([nH]c5ccccc5c4=O)C3c3ccc4c(c3)OCO4)o2)cc1 (racemic) [Compound 26, 1,2,3,4-tetrahydro-3(3,4-methylenedioxyphenyl)2-[5-(4-aminophenyl)-furoyl]-9H-pyrrolo[3,4-b]quinolin-9-one] | 1.92 |
| O=C(c1ccc(-c2cccc(C(F)(F)F)c2)o1)N1Cc2c([nH]c3ccccc3c2=O)C1c1ccc2c(c1)OCO2 (centres unmarked) [Compound 13, 1,2,3,4-Tetrahydro-3-(3,4-methylenedioxyphenyl)-2-[5-(3-trifluoromethylphenyl)furoyl]-9H-pyrrolo-[3,4-b]quinolin-9-one] | 0.227 |
| Oc1c2c(nc3ccccc13)C(c1ccc3c(c1)OCO3)N(c1ncc(-c3cccnc3)cn1)C2 (racemic) [Compound 56, 1,2,3,4-Tetrahydro-2-[5-(3-pyridinyl)-pyrimidin-2-yl]-3-(3,4-methylenedioxyphenyl)-9H-pyrrolo-[3,4-b]quinolin-9-one] | 1.24 |
| O=c1c2c([nH]c3ccccc13)C(c1ccc3c(c1)OCO3)N(c1ncc(-c3ccncc3)cn1)C2 (racemic) [Compound 99] | 0.84 |
| O=c1c2c([nH]c3ccccc13)C(c1ccc3c(c1)OCO3)NC2 (racemic) [Compound 4, 1,2,3,4-Tetrahydro-3-(3,4-methylenedioxyphenyl)-9H-pyrrolo-[3,4-b]quinolin-9-one, hydrochloride salt] | 664 |
| COC(=O)c1ccc(/C=C/C(=O)N2Cc3c([nH]c4ccccc4c3=O)C2c2ccc3c(c2)CCO3)cc1 (racemic) [Compound 20, (E)-4-[3-Oxo-3-[1,2,3,4-tetrahydro-3-(2,3-dihydrobenzofuran-5-yl)-9H-pyrrolo-[3,4-b]quinolin-9-one-2-yl]-1-propenyl]benzoic acid, methyl ester] | 0.53 |
| O=C(c1ccc(-c2ccccc2)o1)N1Cc2c(nc3ccccc3c2O)C1c1ccc2c(c1)OCO2 (racemic) [Compound 110] | 0.755 |
| O=c1c2c([nH]c3ccccc13)[C@@H](c1ccc3c(c1)CCO3)N(Cc1ccccc1)C2 [Compound 77, (R)-1,2,3,4-Tetrahydro-2-benzyl-3-(2,3-dihydrobenzofuran-5-yl)-9H-pyrrolo-[3,4-b]quinolin-9-one] | 62.7 |
| O=c1c2c([nH]c3ccccc13)C(c1ccc3c(c1)OCO3)N(Cc1ccncc1)C2 (racemic) [Compound 5, 1,2,3,4-Tetrahydro-3-(3,4-methylenedioxyphenyl)-2-(pyridin-4-yl)methyl-9H-pyrrolo-[3,4-b]quinolin-9-one] | 688 |
| COc1ccc(-c2cnc(N3Cc4c([nH]c5ccccc5c4=O)C3c3ccc(OC)c(OC)c3)nc2)cc1OC (centres unmarked) [Compound 15, 1,2,3,4-Tetrahydro-[5-(3,4-dimethoxyphenyl)-pyrimidin-2-yl]-3-(3,4-dimethoxyphenyl)-9H-pyrrolo[3,4-b]quinolin-9-one] | 1160 |
| O=C(c1ccc(-c2ccc([N+](=O)[O-])cc2)o1)N1Cc2c(nc3ccccc3c2O)C1c1ccc2c(c1)OCO2 (racemic) [Compound 16, 1,2,3,4-Tetrahydro-3-(3,4-methylenedioxyphenyl)-2-[5-(4-nitrophenyl)-furoyl]-9H-pyrrolo[3,4-b]quinolin-9-one] | 0.39 |
| COc1ccc(-c2cnc(N3Cc4c([nH]c5ccccc5c4=O)C3c3ccc4c(c3)CCO4)nc2)cc1 (centres unmarked) [Compound 39, 1,2,3,4-Tetrahydro-2-[5-(4-methoxyphenyl)-pyrimidin-2-yl]-3-(2,3-dihydrobenzofuranyl)-9H-pyrrolo-[3,4-b]quinolin-9-one] | 0.47 |
| Cc1ccc(-c2cnc(N3Cc4c([nH]c5ccccc5c4=O)C3c3ccc4c(c3)OCO4)nc2)cc1 (racemic) [Compound 7, 1,2,3,4-Tetrahydro-2-[5-(4-methylphenyl)-pyrimidin-2-yl]-3-(3,4-methylenedioxyphenyl)-9H-pyrrolo-[3,4-b]quinolin-9-one] | 0.325 |
| O=c1c2c([nH]c3ccccc13)C(c1ccc3c(c1)OCO3)N(c1ncc(Br)cn1)C2 (racemic) [Compound 55, 1,2,3,4-Tetrahydro-2-(5-bromopyrimidin-2-yl)-3-(3,4-methylenedioxyphenyl)-9H-pyrrolo-[3,4-b]quinolin-9-one] | 4.48 |
| O=c1c2c([nH]c3ccccc13)C(c1ccc3c(c1)CCO3)N(c1ncc(-c3ccccn3)cn1)C2 (centres unmarked) [Compound 61] | 1.03 |
| O=C(c1ccc(-c2ccc(OCCN3CCCC3)cc2)o1)N1Cc2c(nc3ccccc3c2O)C1c1ccc2c(c1)OCO2 (racemic) [Compound 45, 1,2,3,4-Tetrahydro-3-(3.4-methylenedioxyphenyl)-2-(5-(4-(2-(1-pyrrolidinyl)ethoxy)phenyl)-furoyl)-9H-pyrrolo[3,4-b]quinolin-9-one] | 1.33 |
